Read-outs that look alike come from different tables or passages of the source.
System: phenyl-p-benzoquinone induced writhing in mice
Experiment: phenyl-p-benzoquinone induced writhing test in mice (antiphenylquinone writhing), oral, with isobologram analysis
Type: in vivo, mouse (male CF1)
Conditions: 20 min; for ED50: read-out: ED50 dose; for % mice blocked: oral
Procedure: The phenyl-p-benzoquinone induced writhing test in mice [H. Blumberg et al., Proc. Soc. […] The method simply consists of reading the % ED50 DOSE for each dose ratio on the best fit regression analysis curve from the mouse isobologram, multiplying each component by its effective species dose, and then forming the ratio of the amount of nalbuphine to zomepirac. […] [E. W. Pelikan, The Pharmacologist, 1, 73 (1959).]
All solutions are prepared fresh daily.
Each mouse is used only once, then discarded.
In order to study the interaction between nalbuphine and zomepirac, 6 precise dosage ratios of nalbuphine hydrochloride and zomepirac are selected.
The nature of the analgetic interaction (addition, synergism, or antagonism) is determined by graphing the results in a Loewe isobologram [S. Loewe, Pharm. Rev. 9:237-242, (1957)]. The isobologram is a quantitative method for measuring interactions between drugs where dose-effect relationships are depicted in a multi-dimensional array with lines connecting dose pairs that are equieffective in relationship to a common pharmacological endpoint. In this instance, the antiphenylquinone writhing test is used to estimate a common level of analgesic activity (ED50 dose) for the two component drugs separately and for each fixed dose-ratio combination.
If such substitution increases the response, the mixing together of the compounds is said to potentiate their effects and synergism exists.
Consider ED50 doses of mixtures of X units of compound B with Y units of compound A, whose ED50 doses are β and α, respectively. Given the hypothesis of additivity, all doses of mixtures satisfying the straight line relation,
will be ED50 doses. To test the hypothesis of additivity, ED50 doses of mixtures are estimated through probit analysis of data from experiments run at various ratios of A to B. Linear and curvilinear regression models are fitted to the data to estimate the amounts of A in respective ED50 doses, given the amount of B, (or, conversely, the amount of B, given A).
The regression is fitted to the data by the method of least squares. Residual squared deviations about the line of best fit are minimized in directions along lines from the origin through respective data points on the isobologram, these lines making angles with X-axis, tan^-1 (Y/X). This is accomplished by a transformation prior to the […] analysis. Its inverse is applied to transform the coordinates of the regression curve back to the X,Y coordinates of the isobologram.
A statistically significant regression will refute the hypothesis.
The method of least squares utilizes jointly the information contained in all of the separate data points. Statistical significance of the curvilinearity of the regression model establishes the existence of synergism (or antagonism) of the compounds in the biological system studied. The parameters in the model describe its intensity over the range of mixture ratios, from 0 to 1, the nature of which is seen readily when the regression is plotted on the isobologram.

SMILES	ED50 (Mus musculus, po)	% mice blocked (nalbuphine HCl 2.75 + zomepirac sodium 0 mg/kg)	% mice blocked (nalbuphine HCl 5.5 + zomepirac sodium 0 mg/kg)	% mice blocked (nalbuphine HCl 11 + zomepirac sodium 0 mg/kg)	% mice blocked (nalbuphine HCl 22 + zomepirac sodium 0 mg/kg)	% mice blocked (nalbuphine HCl 44 + zomepirac sodium 0 mg/kg)	ED50 (drug alone, twenty minutes post oral dosing, mouse antiphenylquinone writhing test)	% mice blocked (nalbuphine HCl 0 + zomepirac sodium 0.29 mg/kg)	% mice blocked (nalbuphine HCl 0 + zomepirac sodium 0.58 mg/kg)	% mice blocked (nalbuphine HCl 0 + zomepirac sodium 1.16 mg/kg)	% mice blocked (nalbuphine HCl 0 + zomepirac sodium 2.32 mg/kg)
Oc1ccc2c3c1O[C@H]1[C@@H](O)CC[C@@]4(O)[C@@H](C2)N(CC2CCC2)CC[C@]314 [Nalbuphine, (-)-17-(cyclobutylmethyl)-4,5α-epoxymorphinan-3,6α,14-triol]	12 mg/kg	15.6%	24.4%	62.2%	68.9%	84.4%					
Cc1cc(CC(=O)O)n(C)c1C(=O)c1ccc(Cl)cc1 [Zomepirac Sodium, 5-(4-chlorobenzoyl)-1,4-dimethyl-1H-pyrrole-2-acetic acid]							1.66 mg/kg	13.3%	20.0%	31.1%	75.6%
